Patent publication US20210002725A1, “METHODS FOR THE DIAGNOSIS OF METABOLIC DISORDERS USING EPIMETABOLIC SHIFTERS, MULTIDIMENSIONAL INTRACELLULAR MOLECULES, OR ENVIRONMENTAL INFLUENCES” (Berg LLC, priority 2009, published 2021)

Tests used:
Type in all cases: cell-based, human
SKBr3 cells = assay: Nexin assay for early and late apoptosis (flow cytometry); settings: 50 μM or 100 μM Q10, 24 hours
From the text: The 7AAD dye will enter into cells with permeabilized cell membranes; primarily those cells that are in late apoptosis. Annexin-V-PE is a dye that binds to Phosphotidyl serine, which is exposed on the outer surface of the plasma membrane in early apoptotic cells. The Nexin reagent thus can be used to differentiate between different populations of apoptotic cells in a flow cytometer.

[1] = test system: Lactate Dehydrogenase (LDH); assay: Western blot of Lactate Dehydrogenase levels in cells treated with Coenzyme Q10; settings: HepG2, 5 g, 24 h, 50 μM
Procedure: The samples were processed and run on a 4-12% Bis-Tris Novex NuPAGE gel as described above. The gels were run, transferred and stained essentially as described above.
After transfer each blot was dried for 15-20 minutes, activated with methanol for 5 seconds, washed with water for 5 minutes, and TBST for 15 minutes. The blots were blocked for 1 hour with 5% blocking reagent in TBS-T at room temperature and then washed 3 times with TBS-T (1×-15′; 2×5′ each) and probed with the primary antibody for Lactate Dehydrogenase (abcam ab2101; polyclonal) in 5% BSA (at 1:1000 dilutions) by incubation overnight at 4 deg C. with shaking. After the overnight incubation with primary antibody for Lactate Dehydrogenase, the blots were washed 3 times with TBS-T (1×-15′; 2×5′ each) and probed with the secondary antibody (rabbit antigoat; 1:10,000 dilution) for 1 h at room temperature. After 1 h of incubation with secondary antibodies, the blots were washed 3 times with TBS-T (1×-15′; 2×5′ each) and then incubated with ECF reagent for 5 mins and then each blot scanned with 5100 Fuji Laser scanner at 25 uM resolution, 16 bit, green laser, at 400V and at 500 V. […]
The levels of LDH and PDH were determined by probing the blots successively with primary antibodies for LDH and PDH, essentially as described above. […]

HK-2 cells [2] = assay: Mitochondria PCR arrays in cell model for diabetes; settings: HK-2(H) 22 mM glucose
Procedure: (§1) The HK-2 and HASMC cells are normally maintained in culture at 5.5 mM glucose, which is a concentration that corresponds to a range considered normal in human blood. However, in order to simulate a diabetic environment, both cell lines were subsequently maintained at 22 mM glucose, which corresponds to the range observed in human blood associated with chronic hyperglycemia. The cells were subsequently allowed to propagate over 3 passages so that the intracellular regulation processes were functionally adapted to mimic a diabetic state. The choice of cell line was based on the physiologic influence of diabetes on renal dysfunction and progression to end-stage renal disease (ESRD) in addition to the progressive pathophysiology of a compromised cardiovascular function.
(§2) Differential expression of mitochondrial genes in diabetes was assayed using the mitochondria arrays (Cat#PAHS 087E, SABisociences Frederick Md.).

HASMC cells = assay: Mitochondria PCR arrays in cell model for diabetes; settings: HASMC-(H) 22 mM glucose
Procedure: as §1, §2

HK-2 cells [3] = assay: Diabetes PCR array in cell model for diabetes
Procedure: as §1
The Diabetes PCR array (SABiosciences) offers a screen for 84 genes simultaneously.
A stringent analysis of the Real time PCR data of the HK-2 samples on the Diabetes Arrays (Cat #PAHS-023E, SABiosciences Frederick Md.) was made to exclude all results where gene regulation was not at least a two-fold regulation over HK-2 normal untreated cells with a p value of less than 0.05.

COC1=C(OC)C(=O)C(C/C=C(\C)CC/C=C(\C)CC/C=C(\C)CC/C=C(\C)CC/C=C(\C)CC/C=C(\C)CC/C=C(\C)CC/C=C(\C)CC/C=C(\C)CCC=C(C)C)=C(C)C1=O [Q10, Coenzyme Q10]
early and late apoptosis (SKBr3 cells): did not show any significant increases of early and late apoptosis | Lactate Dehydrogenase Normalized Volume [1]: 7900 | GRPEL1 gene regulation (mitochondria array) (HK-2 cells [2]; 50 μM Coenzyme Q10): −2.6512 | SLC25A3 gene regulation (mitochondria array) (HK-2 cells [2]; 50 μM Coenzyme Q10): −8.2059 | TOMM40 gene regulation (mitochondria array) (HK-2 cells [2]; 50 μM Coenzyme Q10): −1.1567 | TSPO gene regulation (mitochondria array) (HK-2 cells [2]; 50 μM Coenzyme Q10): −6.7583 | GRPEL1 gene regulation (mitochondria array) (HK-2 cells [2]; 100 μM Coenzyme Q10): −1.933 | SLC25A3 gene regulation (mitochondria array) (HK-2 cells [2]; 100 μM Coenzyme Q10): −1.6984 | TOMM40 gene regulation (mitochondria array) (HK-2 cells [2]; 100 μM Coenzyme Q10): −1.9509 | TSPO gene regulation (mitochondria array) (HK-2 cells [2]; 100 μM Coenzyme Q10): −2.1104 | BCL2L1 gene regulation (mitochondria array) (HASMC cells; 50 uM Coenzyme Q10): −2.7863 | MFN1 gene regulation (mitochondria array) (HASMC cells; 50 uM Coenzyme Q10): −1.2585 | PMAIP1 gene regulation (mitochondria array) (HASMC cells; 50 uM Coenzyme Q10): −6.8132 | SLC25A1 gene regulation (mitochondria array) (HASMC cells; 50 uM Coenzyme Q10): −1.834 | SLC25A13 gene regulation (mitochondria array) (HASMC cells; 50 uM Coenzyme Q10): −1.5 | SLC25A19 gene regulation (mitochondria array) (HASMC cells; 50 uM Coenzyme Q10): −1.4257 | SLC25A22 gene regulation (mitochondria array) (HASMC cells; 50 uM Coenzyme Q10): −1.9839 | TIMM44 gene regulation (mitochondria array) (HASMC cells; 50 uM Coenzyme Q10): −2.3214 | TOMM40 gene regulation (mitochondria array) (HASMC cells; 50 uM Coenzyme Q10): −2.0922 | TSPO gene regulation (mitochondria array) (HASMC cells; 50 uM Coenzyme Q10): −2.0586 | BCL2L1 gene regulation (mitochondria array) (HASMC cells; 100 μM Coenzyme Q10): −2.3001 | MFN1 gene regulation (mitochondria array) (HASMC cells; 100 μM Coenzyme Q10): −2.2632 | PMAIP1 gene regulation (mitochondria array) (HASMC cells; 100 μM Coenzyme Q10): −4.352 | SLC25A1 gene regulation (mitochondria array) (HASMC cells; 100 μM Coenzyme Q10): −3.0001 | SLC25A13 gene regulation (mitochondria array) (HASMC cells; 100 μM Coenzyme Q10): −1.5245 | SLC25A19 gene regulation (mitochondria array) (HASMC cells; 100 μM Coenzyme Q10): −2.1214 | SLC25A22 gene regulation (mitochondria array) (HASMC cells; 100 μM Coenzyme Q10): −10.3747 | TIMM44 gene regulation (mitochondria array) (HASMC cells; 100 μM Coenzyme Q10): −1.9931 | TOMM40 gene regulation (mitochondria array) (HASMC cells; 100 μM Coenzyme Q10): −2.2684 | TSPO gene regulation (mitochondria array) (HASMC cells; 100 μM Coenzyme Q10): −2.3647 | CEACAM1 RNA transcript (HK-2 cells [3]; HK2(H) cells at 22 mM glucose, particularly 100 μM Coenzyme Q10): highly upregulated | insulin receptor (INSR) expression (HK-2 cells [3]; diabetic HK-2 cells): increase in expression
